Assay results reported in PubChem BioAssay AID1996.
In brackets after ≈: the same amount, converted by molar mass.

Details: buffer; pH 7.4; 200.0 µM

SMILES | solubility kinetic
C=CCNC(=O)C12CCC(C)(C(=O)[C@H]1Br)C2(C)C (stereo not given in full) | > 47.1 µg/mL
Cc1cc(C(=O)NCC(c2ccco2)N(C)C)ccc1[N+](=O)[O-] (stereo not given) | 39.7 µg/mL (≈ 125 µM)
Cc1cc(C)c(C)c(S(=O)(=O)NCc2ccncc2)c1C | 25.8 µg/mL (≈ 84.8 µM)
CC1CCCN(C(=O)COC(=O)Cc2c(F)cccc2Cl)C1 (stereo not given) | 40.9 µg/mL (≈ 125 µM)
O=S(=O)(NCc1cccnc1)c1ccc2ccccc2c1 | 41.3 µg/mL (≈ 138 µM)
CC(C)CCc1noc(CN(C)CCC2CCOCC2)n1 | > 44.3 µg/mL
Cc1ccc(CNC(=O)c2c(-c3ccccc3Cl)noc2C)cc1 | 42.6 µg/mL (≈ 125 µM)
C[C@H](C(=O)NCc1ccccc1)C(=O)c1ccccc1 | > 40.1 µg/mL
Cc1cccc(NC(=O)c2ccccc2C(=O)Nc2cccc(C)c2)c1 | 3 µg/mL (≈ 8.71 µM)
Cc1cc(O)ccc1NS(=O)(=O)c1ccc2c3c(cccc13)C(=O)N2 | 48.8 µg/mL (≈ 138 µM)
Cc1cc(C(=O)Nc2cc(S(C)(=O)=O)ccc2Cl)c(C)o1 | 11.8 µg/mL (≈ 36 µM)
COc1ccc(S(=O)(=O)N2CCCCC2)cc1NS(=O)(=O)c1ccc(CNC(C)=O)cc1 | 62.5 µg/mL (≈ 130 µM)
O=C(O)/C=C/C(=O)Nc1c(F)cccc1F | 27.1 µg/mL (≈ 119 µM)
O=C(COC(=O)C1=Cc2ccccc2OC1)NCc1ccco1 | 5.6 µg/mL (≈ 17.9 µM)
O=C(Cc1cccc2ccccc12)Nc1c(F)cccc1F | 1.2 µg/mL (≈ 4.04 µM)
C/C(=C\c1cccc(Cl)c1Cl)C(=O)c1c(C)cc(C)[nH]c1=O | 3.5 µg/mL (≈ 10.4 µM)
Cc1ccc(CNS(=O)(=O)c2ccc([N+](=O)[O-])cc2)cc1 | 1.8 µg/mL (≈ 5.88 µM)
CCOc1cccc(CNCc2ccncc2)c1 | 27.4 µg/mL (≈ 113 µM)
O=C(CN1C(=O)NC2(CCCCCC2)C1=O)N1CCCCC1 | > 46.1 µg/mL
Cc1ccc(NC(=S)N2CCCC(c3nc4ccccc4[nH]3)C2)cc1 (stereo not given) | 2.3 µg/mL (≈ 6.56 µM)

SMILES | solubility kinetic
COc1ccccc1CCNC(=O)c1csc2c1CCCC2 | 1 µg/mL (≈ 3.17 µM)
CC(NC(=O)c1cccc(S(=O)(=O)N(C)c2ccccc2)c1)c1cccnc1 (stereo not given) | > 59.3 µg/mL
COc1ccccc1C(C)NC(=O)CCNC(=O)c1ccc(Cl)cc1 (stereo not given) | 4.5 µg/mL (≈ 12.5 µM)
O=C(NC1CCCC1)c1cc(-c2ccccc2)nc2ccccc12 | 1.4 µg/mL (≈ 4.42 µM)
COc1ccc2ccccc2c1CNC(C)c1ccccc1.O=C(O)C(=O)O (stereo not given) | > 57.2 µg/mL
COc1ccc(CNC(=O)c2csc3c2CCCC3)cc1 | 23.2 µg/mL (≈ 77 µM)
O=c1c2ccccc2[nH]c(=S)n1Cc1ccccc1Cl | 0.9 µg/mL (≈ 2.97 µM)
N/C(=N/O)c1cccn1Cc1ccccc1[N+](=O)[O-] | > 39 µg/mL
O=C(NC1CCCC1)C1CCCN(S(=O)(=O)c2ccc(F)cc2)C1 (stereo not given) | 3.4 µg/mL (≈ 9.59 µM)
CCOc1ccc(S(=O)(=O)NC2CC2)cc1 | > 36.2 µg/mL
CNC(=O)COC(=O)/C=C/c1nc2ccccc2s1 | > 41.4 µg/mL
CNC(=O)C12N=CNN=C1N(C)C(=O)N2C (stereo not given) | > 33.6 µg/mL
Nc1nc2nc(-c3ccccc3)cc(C(F)(F)F)c2s1 | 4.1 µg/mL (≈ 13.9 µM)
COc1ccc([N+](=O)[O-])cc1NS(=O)(=O)c1cccc(C(=O)OC2CCOC2=O)c1 (stereo not given) | > 65.5 µg/mL
COC(c1ccccc1)(c1ccccc1)C(Oc1nc(C)cc(C)n1)C(=O)O (stereo not given) | > 56.8 µg/mL
Cn1nc(-c2ccc(Cl)cc2)cc1NC(=O)CCCC(=O)O | > 48.3 µg/mL
CCCC(CNC(=O)COC(=O)C1=NNC(=O)CC1)c1ccc(Cl)cc1Cl (stereo not given) | > 62.1 µg/mL
O=c1c2ccccc2[nH]c(=S)n1Cc1ccc2c(c1)OCO2 | < 0.3 µg/mL
N#Cc1ccc(C(=O)Nc2cccc(NC(=O)c3ccco3)c2)c(F)c1 | 2 µg/mL (≈ 5.73 µM)
Cc1c(NC(=O)Nc2ccc(F)cc2F)c(=O)n(-c2ccccc2)n1C | > 53.8 µg/mL

SMILES | solubility kinetic
CCN1CCN(CCc2nc3cc([N+](=O)[O-])ccc3n2C)CC1 | > 47.6 µg/mL
COc1ccc(S(=O)(=O)N2CCCCCC2)cc1C(=O)NCc1ccco1 | 46.5 µg/mL (≈ 118 µM)
O=C(OCC(=O)N1CCc2ccccc21)c1ccc[nH]c1=O | 8.6 µg/mL (≈ 28.8 µM)
CC1(C)C(=O)Nc2ccccc2N1C(=O)COc1ccccc1C#N | 21.5 µg/mL (≈ 64.1 µM)
C/C(=N/OC(=O)C1CC1)c1cc(-c2ccc(Cl)cc2)no1 | 0.4 µg/mL (≈ 1.31 µM)
Cc1ccccc1-c1noc(CNC(=O)COc2ccccc2)n1 | 7.7 µg/mL (≈ 23.8 µM)
Cn1c(-c2ccc(Cl)nc2)nc2cc(Cl)ccc21 | 6.6 µg/mL (≈ 23.7 µM)
Cc1nc2ccccc2c(=O)n1-c1cccc([N+](=O)[O-])c1 | 36.4 µg/mL (≈ 129 µM)
CN(CC(=O)N1CCc2ccccc2C1)c1ccccc1 | > 42.1 µg/mL
CCN(C(=O)COc1ccc(C(C)=O)cc1)c1cccc2ccccc12 | 43.2 µg/mL (≈ 124 µM)
CC1(C)Cc2ccccc2-c2nc(NCCCO)[nH]c(=O)c21 | 39.5 µg/mL (≈ 132 µM)
OC(CNCc1ccc(Cl)cc1)C(F)(F)F (stereo not given) | > 38 µg/mL
COC(=O)c1sccc1NC(=O)Nc1ccc(F)cc1 | 28.4 µg/mL (≈ 96.5 µM)
CCOC(=O)c1c(N)sc2c1CCN(CCc1ccccc1)C2 | 31.7 µg/mL (≈ 95.9 µM)
O=C(NS(=O)(=O)c1ccccc1[N+](=O)[O-])c1ccccc1 | > 45.9 µg/mL
Cc1[nH]c2ccccc2c1C(=O)COc1ccccc1F | 1.6 µg/mL (≈ 5.65 µM)
Cc1ccc2cc(C)c(SCC(=O)NCC3CCCO3)nc2c1 (stereo not given) | 48.2 µg/mL (≈ 146 µM)
CC1Sc2ccc(C(=O)NCc3ccccc3Cl)cc2NC1=O (stereo not given) | 4.1 µg/mL (≈ 11.8 µM)
O=C(Nc1cccc2ncccc12)c1ccc(OCc2ccccc2)cc1 | < 0.4 µg/mL
CC1SC(c2ccc(F)cc2)N(CCc2ccccc2)C1=O (stereo not given) | 21.8 µg/mL (≈ 69.1 µM)
